These results are taken from patent US4885170A, “Antibiotic A80509” (Eli Lilly and Company, priority 1988, dated 1989).

Positions of bridges follow the written chain, without caps; N, C: chain ends. Non-standard residues stand in square brackets, D forms with d. Residues, ends and D or L forms follow the SMILES beside them. *: point of attachment. Ileψ(thiazoline)Cys = CC[C@H](C)[C@H](N)C1=N[C@H](C(=O)*)CS1; dOrn = NCCC[C@@H](N)C(=O)O

This experiment has as its system Culture A80509. The experiment in a line: resistance of culture A80509 to antibiotics, sensitivity discs on agar.

In the case of `CC[C@H](C)[C@H](N)C1=N[C@H](C(=O)N[C@@H](CC(C)C)C(=O)N[C@H](CCC(=O)O)C(=O)N[C@H](C(=O)N[C@H]2CCCCNC(=O)[C@H](CC(N)=O)NC(=O)[C@@H](CC(=O)O)NC(=O)[C@H](Cc3cnc[nH]3)NC(=O)[C@@H](Cc3ccccc3)NC(=O)[C@H]([C@@H](C)CC)NC(=O)[C@@H](CCCN)NC2=O)[C@@H](C)CC)CS1` [bacitracin] ({Ileψ(thiazoline)Cys}-L[dE]IK[dOrn]I[dF]H[dD]N; lactam 4-C), under “disc 10 units”, the “resistance/sensitivity of culture A80509” value is reported as “sensitive”.

For `CC(=O)OCC1=C(C(=O)O)N2C(=O)[C@@H](NC(=O)Cc3cccs3)[C@H]2SC1` [cephalothin], the “resistance/sensitivity of culture A80509” value (disc 30 μg) is reported as “resistant”. In the case of `CCC[C@@H]1C[C@@H](C(=O)N[C@@H]([C@H]2O[C@H](SC)[C@H](O)[C@@H](O)[C@H]2O)[C@@H](C)O)N(C)C1` [lincomycin], for the setting “disc 2 μg”, the “resistance/sensitivity of culture A80509” value is “resistant”.

For `CO[C@H]1C[C@H](O[C@H]2[C@H](C)[C@@H](O[C@@H]3O[C@H](C)C[C@H](N(C)C)[C@H]3O)[C@@H](C)C[C@@]3(CO3)C(=O)[C@H](C)[C@@H](O)[C@@H](C)[C@@H](C)OC(=O)[C@@H]2C)O[C@@H](C)[C@@H]1O` [oleandomycin], the “resistance/sensitivity of culture A80509” value (disc 15 μg) is on record as “resistant”. Turning to `CC1(C)S[C@@H]2[C@H](NC(=O)Cc3ccccc3)C(=O)N2[C@H]1C(=O)O` [penicillin G], the “resistance/sensitivity of culture A80509” value (disc 10 units) is on record as “resistant”. With `CO[C@H]1/C=C/O[C@@]2(C)Oc3c(C)c(O)c4c(O)c(c(/C=N/N5CCN(C)CC5)c(O)c4c3C2=O)NC(=O)/C(C)=C\C=C\[C@H](C)[C@H](O)[C@@H](C)[C@@H](O)[C@@H](C)[C@H](OC(C)=O)[C@@H]1C` [rifampin], the “resistance/sensitivity of culture A80509” value (disc 5 μg) was “sensitive”. Take `[H]/N=C(/N)N[C@H]1[C@H](O)[C@@H](O)[C@H](O[C@@H]2O[C@@H](C)[C@](O)(C=O)[C@H]2O[C@@H]2O[C@@H](CO)[C@H](O)[C@@H](O)[C@@H]2NC)[C@@H](N/C(N)=N\[H])[C@@H]1O` [streptomycin]: for the setting “disc 10 μg”, the “resistance/sensitivity of culture A80509” value is on record as “sensitive”. For the molecule `CN(C)C1C(=O)C(C(N)=O)=C(O)C2(O)C(=O)C3=C(O)c4c(O)cccc4C(C)(O)C3CC12` (stereo not drawn) [tetracycline], the “resistance/sensitivity of culture A80509” value (disc 30 μg) is listed as “sensitive”.

Regarding `NC[C@H]1O[C@H](O[C@H]2[C@H](O)[C@@H](O[C@H]3O[C@H](CO)[C@@H](O)[C@H](N)[C@H]3O)[C@H](N)C[C@@H]2N)[C@H](N)C[C@@H]1O` [tobramycin], the “resistance/sensitivity of culture A80509” value (disc 10 μg) is recorded as “sensitive”. Turning to `CN[C@H](CC(C)C)C(=O)N[C@H]1C(=O)N[C@@H](CC(N)=O)C(=O)N[C@H]2C(=O)N[C@H]3C(=O)N[C@H](C(=O)N[C@H](C(=O)O)c4cc(O)cc(O)c4-c4cc3ccc4O)[C@H](O)c3ccc(c(Cl)c3)Oc3cc2cc(c3O[C@@H]2O[C@H](CO)[C@@H](O)[C@H](O)[C@H]2O[C@H]2C[C@](C)(N)[C@H](O)[C@H](C)O2)Oc2ccc(cc2Cl)[C@H]1O` [vancomycin], under “disc 30 μg”, the “resistance/sensitivity of culture A80509” value is on record as “sensitive”. For gentamicin, for the setting “disc 10 μg”, the “resistance/sensitivity of culture A80509” value is reported as “sensitive”. Take neomycin: the “resistance/sensitivity of culture A80509” value (disc 30 μg) was “sensitive”.
